Reference: patent US6689773B2, “Uracil substituted phenyl sulfamoyl carboxamides” (BASF Aktiengesellschaft, priority 2000, dated 2004)

Key:
Type in all cases: in vivo
[1] = system: ABUTH, Velvetleaf, Abutilon theophrasti, Medic.; experiment: Postemergence herbicidal evaluation (Example 147); conditions: rating scale 0-9, two to three weeks after treatment
Procedure, shortened: (§1)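 Values are 0-9 visual scores, averaged over repeat tests where available. Seedlings of about two weeks were sprayed with roughly 0.016 to 0.032 kg/ha in 80/20 acetone/water plus 1.0% seed oil, then held in the greenhouse two to three weeks.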

[2] = system: ALOMY, Blackgrass, Alopecurus myosuroides; experiment: Postemergence herbicidal evaluation (Example 147); conditions: rating scale 0-9, two to three weeks after treatment
Procedure, shortened: as §1

[3] = system: AMBEL, Ragweed, Common, Ambrosia artemiisifolia, L.; experiment: Postemergence herbicidal evaluation (Example 147); conditions: rating scale 0-9, two to three weeks after treatment
Procedure, shortened: as §1

[4] = system: CHEAL, Lambsquarters, Chenopodium album, L. Common; experiment: Postemergence herbicidal evaluation (Example 147); conditions: rating scale 0-9, two to three weeks after treatment
Procedure, shortened: as §1

[5] = system: DIGSA, Crabgrass, (Hairy) L, Digitaria sanguinalis, (L)Scop; experiment: Postemergence herbicidal evaluation (Example 147); conditions: rating scale 0-9, two to three weeks after treatment
Procedure, shortened: as §1

[6] = system: ECHCG, Barnyardgrass, Echinochloa crusgalli, (L.)Beau; experiment: Postemergence herbicidal evaluation (Example 147); conditions: rating scale 0-9, two to three weeks after treatment
Procedure, shortened: as §1

[7] = system: GLXMA, Soybean, Glycine max, (L.) Merr.; experiment: Postemergence herbicidal evaluation (Example 147); conditions: rating scale 0-9, two to three weeks after treatment
Procedure, shortened: as §1

[8] = system: IPOHE, Morningglory, Ivyleaf, Ipomoea hederacea, (L)Jacq.; experiment: Postemergence herbicidal evaluation (Example 147); conditions: rating scale 0-9, two to three weeks after treatment
Procedure, shortened: as §1

[9] = system: SETVI, Green foxtail, Setaria viridis, (L.)Beau; experiment: Postemergence herbicidal evaluation (Example 147); conditions: rating scale 0-9, two to three weeks after treatment
Procedure, shortened: as §1

[10] = system: TRZAW, Winter wheat, Tritium Aestivum, L. (Winter); experiment: Postemergence herbicidal evaluation (Example 147); conditions: rating scale 0-9, two to three weeks after treatment
Procedure, shortened: as §1

[11] = system: XANST, Cocklebur, Xanthium strumariam; experiment: Postemergence herbicidal evaluation (Example 147); conditions: rating scale 0-9, two to three weeks after treatment
Procedure, shortened: as §1

[12] = system: ZEAMX, Field corn, Zea mays L.; experiment: Postemergence herbicidal evaluation (Example 147); conditions: rating scale 0-9, two to three weeks after treatment
Procedure, shortened: as §1

[13] = system: ABUTH, Velvetleaf, Abutilon theophrasti, Medic.; experiment: Preemergence herbicidal evaluation (Example 148); conditions: rating scale 0-9, two to four weeks after treatment
Procedure, shortened: (§2)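 Scores reflect visual assessment of plant stand, vigour, malformation, size and chlorosis relative to an untreated control, made two to four weeks after a preemergence spray delivering about 0.125–0.250 kg/ha.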

[14] = system: ALOMY, Blackgrass, Alopecurus myosuroides; experiment: Preemergence herbicidal evaluation (Example 148); conditions: rating scale 0-9, two to four weeks after treatment
Procedure, shortened: as §2

[15] = system: AMBEL, Ragweed, Common, Ambrosia artemiisifolia, L.; experiment: Preemergence herbicidal evaluation (Example 148); conditions: rating scale 0-9, two to four weeks after treatment
Procedure, shortened: as §2

[16] = system: CHEAL, Lambsquarters, Chenopodium album, L. Common; experiment: Preemergence herbicidal evaluation (Example 148); conditions: rating scale 0-9, two to four weeks after treatment
Procedure, shortened: as §2

[17] = system: DIGSA, Crabgrass, (Hairy) L, Digitaria sanguinalis, (L)Scop; experiment: Preemergence herbicidal evaluation (Example 148); conditions: rating scale 0-9, two to four weeks after treatment
Procedure, shortened: as §2

[18] = system: ECHCG, Barnyardgrass, Echinochloa crusgalli, (L.)Beau; experiment: Preemergence herbicidal evaluation (Example 148); conditions: rating scale 0-9, two to four weeks after treatment
Procedure, shortened: as §2

[19] = system: GLXMA, Soybean, Glycine max, (L.) Merr.; experiment: Preemergence herbicidal evaluation (Example 148); conditions: rating scale 0-9, two to four weeks after treatment
Procedure, shortened: as §2

[20] = system: IPOHE, Morningglory, Ivyleaf, Ipomoea hederacea, (L)Jacq.; experiment: Preemergence herbicidal evaluation (Example 148); conditions: rating scale 0-9, two to four weeks after treatment
Procedure, shortened: as §2

[21] = system: SETVI, Green foxtail, Setaria viridis, (L.)Beau; experiment: Preemergence herbicidal evaluation (Example 148); conditions: rating scale 0-9, two to four weeks after treatment
Procedure, shortened: as §2

[22] = system: TRZAW, Winter wheat, Tritium Aestivum, L. (Winter); experiment: Preemergence herbicidal evaluation (Example 148); conditions: rating scale 0-9, two to four weeks after treatment
Procedure, shortened: as §2

[23] = system: XANST, Cocklebur, Xanthium strumariam; experiment: Preemergence herbicidal evaluation (Example 148); conditions: rating scale 0-9, two to four weeks after treatment
Procedure, shortened: as §2

[24] = system: ZEAMX, Field corn, Zea mays L.; experiment: Preemergence herbicidal evaluation (Example 148); conditions: rating scale 0-9, two to four weeks after treatment
Procedure, shortened: as §2

Cn1c(C(F)(F)F)cc(=O)n(-c2cc(C(=O)NS(=O)(=O)NCc3cccs3)c(Cl)cc2F)c1=O [Example 77]
Postemergence herbicidal rating ABUTH ([1]; rate 0.016 kg/ha): 9.0 | Postemergence herbicidal rating ABUTH ([1]; rate 0.032 kg/ha): 9.0 | Postemergence herbicidal rating ALMOY ([2]; rate 0.016 kg/ha): 1.0 | Postemergence herbicidal rating ALMOY ([2]; rate 0.032 kg/ha): 1.0 | Postemergence herbicidal rating AMBEL ([3]; rate 0.016 kg/ha): 8.0 | Postemergence herbicidal rating AMBEL ([3]; rate 0.032 kg/ha): 8.0 | Postemergence herbicidal rating CHEAL ([4]; rate 0.016 kg/ha): 6.0 | Postemergence herbicidal rating CHEAL ([4]; rate 0.032 kg/ha): 7.0 | Postemergence herbicidal rating DIGSA ([5]; rate 0.016 kg/ha): 4.0 | Postemergence herbicidal rating DIGSA ([5]; rate 0.032 kg/ha): 4.0 | Postemergence herbicidal rating ECHCG ([6]; rate 0.016 kg/ha): 4.0 | Postemergence herbicidal rating ECHCG ([6]; rate 0.032 kg/ha): 6.0 | Postemergence herbicidal rating GLXMA ([7]; rate 0.016 kg/ha): 7.5 | Postemergence herbicidal rating GLXMA ([7]; rate 0.032 kg/ha): 7.5 | Postemergence herbicidal rating IPOHE ([8]; rate 0.016 kg/ha): 9.0 | Postemergence herbicidal rating IPOHE ([8]; rate 0.032 kg/ha): 9.0 | Postemergence herbicidal rating SETVI ([9]; rate 0.016 kg/ha): 5.0 | Postemergence herbicidal rating SETVI ([9]; rate 0.032 kg/ha): 6.0 | Postemergence herbicidal rating TRZAW ([10]; rate 0.016 kg/ha): 4.5 | Postemergence herbicidal rating TRZAW ([10]; rate 0.032 kg/ha): 5.0 | Postemergence herbicidal rating XANST ([11]; rate 0.016 kg/ha): 9.0 | Postemergence herbicidal rating XANST ([11]; rate 0.032 kg/ha): 9.0 | Postemergence herbicidal rating ZEAMX ([12]; rate 0.016 kg/ha): 6.0 | Postemergence herbicidal rating ZEAMX ([12]; rate 0.032 kg/ha): 6.5 | Preemergence herbicidal rating ABUTH ([13]; rate 0.125 kg/ha): 9.0 | Preemergence herbicidal rating ABUTH ([13]; rate 0.25 kg/ha): 9.0 | Preemergence herbicidal rating ALMOY ([14]; rate 0.125 kg/ha): 0.0 | Preemergence herbicidal rating ALMOY ([14]; rate 0.25 kg/ha): 0.0 | Preemergence herbicidal rating AMBEL ([15]; rate 0.125 kg/ha): 9.0 | Preemergence herbicidal rating AMBEL ([15]; rate 0.25 kg/ha): 9.0 | Preemergence herbicidal rating CHEAL ([16]; rate 0.125 kg/ha): 9.0 | Preemergence herbicidal rating CHEAL ([16]; rate 0.25 kg/ha): 9.0 | Preemergence herbicidal rating DIGSA ([17]; rate 0.125 kg/ha): 2.0 | Preemergence herbicidal rating DIGSA ([17]; rate 0.25 kg/ha): 4.0 | Preemergence herbicidal rating ECHCG ([18]; rate 0.125 kg/ha): 2.0 | Preemergence herbicidal rating ECHCG ([18]; rate 0.25 kg/ha): 3.0 | Preemergence herbicidal rating GLXMA ([19]; rate 0.125 kg/ha): 1.0 | Preemergence herbicidal rating IPOHE ([20]; rate 0.125 kg/ha): 7.0 | Preemergence herbicidal rating IPOHE ([20]; rate 0.25 kg/ha): 9.0 | Preemergence herbicidal rating SETVI ([21]; rate 0.125 kg/ha): 2.0 | Preemergence herbicidal rating SETVI ([21]; rate 0.25 kg/ha): 2.0 | Preemergence herbicidal rating TRZAW ([22]; rate 0.125 kg/ha): 0.0 | Preemergence herbicidal rating TRZAW ([22]; rate 0.25 kg/ha): 0.0 | Preemergence herbicidal rating XANST ([23]; rate 0.125 kg/ha): 3.0 | Preemergence herbicidal rating XANST ([23]; rate 0.25 kg/ha): 8.0 | Preemergence herbicidal rating ZEAMX ([24]; rate 0.125 kg/ha): 0.0 | Preemergence herbicidal rating ZEAMX ([24]; rate 0.25 kg/ha): 1.0

CNS(=O)(=O)NC(=O)c1cc(-n2c(=O)cc(C(F)(F)F)n(C)c2=O)c(F)cc1Cl [Example 56]
Postemergence herbicidal rating ABUTH ([1]; rate 0.016 kg/ha): 9.0 | Postemergence herbicidal rating ABUTH ([1]; rate 0.032 kg/ha): 9.0 | Postemergence herbicidal rating ALMOY ([2]; rate 0.016 kg/ha): 2.0 | Postemergence herbicidal rating ALMOY ([2]; rate 0.032 kg/ha): 2.0 | Postemergence herbicidal rating AMBEL ([3]; rate 0.016 kg/ha): 8.0 | Postemergence herbicidal rating AMBEL ([3]; rate 0.032 kg/ha): 9.0 | Postemergence herbicidal rating CHEAL ([4]; rate 0.016 kg/ha): 7.0 | Postemergence herbicidal rating CHEAL ([4]; rate 0.032 kg/ha): 7.0 | Postemergence herbicidal rating DIGSA ([5]; rate 0.016 kg/ha): 3.0 | Postemergence herbicidal rating DIGSA ([5]; rate 0.032 kg/ha): 5.0 | Postemergence herbicidal rating ECHCG ([6]; rate 0.016 kg/ha): 7.0 | Postemergence herbicidal rating ECHCG ([6]; rate 0.032 kg/ha): 7.0 | Postemergence herbicidal rating GLXMA ([7]; rate 0.016 kg/ha): 8.5 | Postemergence herbicidal rating GLXMA ([7]; rate 0.032 kg/ha): 8.5 | Postemergence herbicidal rating IPOHE ([8]; rate 0.016 kg/ha): 9.0 | Postemergence herbicidal rating IPOHE ([8]; rate 0.032 kg/ha): 9.0 | Postemergence herbicidal rating SETVI ([9]; rate 0.016 kg/ha): 6.0 | Postemergence herbicidal rating SETVI ([9]; rate 0.032 kg/ha): 7.0 | Postemergence herbicidal rating TRZAW ([10]; rate 0.016 kg/ha): 4.0 | Postemergence herbicidal rating TRZAW ([10]; rate 0.032 kg/ha): 5.0 | Postemergence herbicidal rating XANST ([11]; rate 0.016 kg/ha): 9.0 | Postemergence herbicidal rating XANST ([11]; rate 0.032 kg/ha): 9.0 | Postemergence herbicidal rating ZEAMX ([12]; rate 0.016 kg/ha): 7.5 | Postemergence herbicidal rating ZEAMX ([12]; rate 0.032 kg/ha): 8.0 | Preemergence herbicidal rating ABUTH ([13]; rate 0.125 kg/ha): 9.0 | Preemergence herbicidal rating ABUTH ([13]; rate 0.25 kg/ha): 9.0 | Preemergence herbicidal rating ALMOY ([14]; rate 0.125 kg/ha): 0.0 | Preemergence herbicidal rating ALMOY ([14]; rate 0.25 kg/ha): 0.0 | Preemergence herbicidal rating AMBEL ([15]; rate 0.125 kg/ha): 9.0 | Preemergence herbicidal rating AMBEL ([15]; rate 0.25 kg/ha): 9.0 | Preemergence herbicidal rating CHEAL ([16]; rate 0.125 kg/ha): 9.0 | Preemergence herbicidal rating CHEAL ([16]; rate 0.25 kg/ha): 9.0 | Preemergence herbicidal rating DIGSA ([17]; rate 0.125 kg/ha): 7.0 | Preemergence herbicidal rating DIGSA ([17]; rate 0.25 kg/ha): 7.0 | Preemergence herbicidal rating ECHCG ([18]; rate 0.125 kg/ha): 3.0 | Preemergence herbicidal rating ECHCG ([18]; rate 0.25 kg/ha): 7.0 | Preemergence herbicidal rating GLXMA ([19]; rate 0.125 kg/ha): 2.0 | Preemergence herbicidal rating GLXMA ([19]; rate 0.25 kg/ha): 9.0 | Preemergence herbicidal rating IPOHE ([20]; rate 0.125 kg/ha): 8.0 | Preemergence herbicidal rating IPOHE ([20]; rate 0.25 kg/ha): 9.0 | Preemergence herbicidal rating SETVI ([21]; rate 0.125 kg/ha): 4.0 | Preemergence herbicidal rating SETVI ([21]; rate 0.25 kg/ha): 8.0 | Preemergence herbicidal rating TRZAW ([22]; rate 0.125 kg/ha): 0.0 | Preemergence herbicidal rating TRZAW ([22]; rate 0.25 kg/ha): 0.0 | Preemergence herbicidal rating XANST ([23]; rate 0.125 kg/ha): 8.0 | Preemergence herbicidal rating XANST ([23]; rate 0.25 kg/ha): 9.0 | Preemergence herbicidal rating ZEAMX ([24]; rate 0.125 kg/ha): 0.0 | Preemergence herbicidal rating ZEAMX ([24]; rate 0.25 kg/ha): 2.0
